Assay results taken from patent US11434479B2, “Sialic acid binding polypeptide” (priority 2017, dated 2022).
Changes are numbered by the printed parent chain.

Experiments:
[1] = target: T1, Streptococcus pneumoniae NanB fragment (residues 30-697, SEQ ID NO:4) variant Sia-PS3, D270N (Streptococcus pneumoniae serotype 4, UniProt Q54727, D270N); experiment: Bio-layer Interferometry (BLI) steady-state binding to immobilized oligosaccharides; details: in words
T1 construct: exemplified by a NanB fragment (residues 30-697); made in house; host or cells: pET28a+ based plasmid
T1 sequence (Q54727 30-692 D270N): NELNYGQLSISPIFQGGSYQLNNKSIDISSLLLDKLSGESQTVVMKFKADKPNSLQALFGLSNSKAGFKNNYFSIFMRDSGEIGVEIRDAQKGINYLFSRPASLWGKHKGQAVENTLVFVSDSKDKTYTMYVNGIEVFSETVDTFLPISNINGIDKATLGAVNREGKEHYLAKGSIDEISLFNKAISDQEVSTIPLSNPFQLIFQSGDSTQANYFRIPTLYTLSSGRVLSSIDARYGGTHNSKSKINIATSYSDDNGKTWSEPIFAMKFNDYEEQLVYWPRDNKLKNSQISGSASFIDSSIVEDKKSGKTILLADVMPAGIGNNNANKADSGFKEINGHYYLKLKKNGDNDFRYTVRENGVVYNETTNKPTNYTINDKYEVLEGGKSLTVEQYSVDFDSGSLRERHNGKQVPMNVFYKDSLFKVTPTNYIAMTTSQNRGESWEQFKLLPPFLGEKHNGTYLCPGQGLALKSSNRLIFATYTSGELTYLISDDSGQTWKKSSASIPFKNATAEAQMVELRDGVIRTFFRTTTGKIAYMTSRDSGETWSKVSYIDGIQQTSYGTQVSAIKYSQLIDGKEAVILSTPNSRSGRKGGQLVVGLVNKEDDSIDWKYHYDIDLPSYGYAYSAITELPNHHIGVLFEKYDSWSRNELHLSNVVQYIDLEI
Description: (§1) Lsp=lactose (no sialic acid), 3′SL=α2,3-sialyllactose, 6′SL=α2,6-sialyllactose, GD3=GD3 oligosaccharide that contains a terminal α2,8-linked Neu5Ac residue and an internal α2,3-linked Neu5Ac residue.
(§2) The pan-specific sialic acid-recognizing affinity reagent of the invention is exemplified by a NanB fragment (residues 30-697; SEQ ID NO:4) with a single mutation. Exemplary mutation sites include Y653, D270, and E541. Exemplary pan-specific affinity reagents, each having a single mutation in the NanB GH domain as noted, are shown in Table 2 and include Sia-PS1 (Y653F), Sia-PS2 (D270A), Sia-PS3 (D270N), Sia-PS4 (E541A), and Sia-PS5 (E541Q). […] They reduce (Sia-PS2 and Sia-PS3) or effectively eliminate (Sia-PS1, Sia-PS4, and Sia-PS5) catalytic activity, and they broaden specificity for sialic acid ligand binding. The pan-specific sialic acid-recognizing affinity reagent we chose for further validation study was Sia-PS1 that contains the Y653F at active site residue Tyr653. This one mutation, which involves removal of a single hydroxyl group, not only eliminates enzyme activity, but astonishingly introduces pan-specific binding into the mutated, inactivated enzyme, despite its distance from the carbohydrate binding module (CBM) domain of the NanB.
(§3) The flowchart presented in FIG. 2 outlines schematically the methods employed in Example I and II to screen, optimize and select the Lectenz® candidates. The specificity and affinity of potential Lectenz® candidates is evaluated through structurally-guided site-specific and/or site-saturation mutagenesis assays designed to enable the selection of optimal clones. Bio-layer Interferometry (BLI) is used to determine the binding kinetics and affinities for binding to glycans and glycoproteins. Affinity chromatography is performed by immobilizing the Lectenz® candidates in a column format to evaluate their ability to fractionate sialylated- and asialo-glycans and glycoconjugates. All promising Lectenz® candidates are screened against the glycan array at the CFG, which currently contains over 600 O- and N-linked glycans.
(§4) Steady-state binding constants between Lectenz® candidates and sialic acid ligands were measured by BLI.

[2] = target: T2, Streptococcus pneumoniae NanB fragment (residues 30-697, SEQ ID NO:4) variant Sia-PS4, E541A (Streptococcus pneumoniae serotype 4, UniProt Q54727, E541A); experiment: as above; details: in words
T2 construct: exemplified by a NanB fragment (residues 30-697); poly-histidine; made in house; host or cells: pET28a+ based plasmid
T2 sequence (Q54727 30-692 E541A): T1 sequence (Q54727 30-692 D270N) with N241D, E512A
Description: as §1, §2, §3, §4

Structure (SMILES)	binding affinity [1]	binding affinity [2]	KD value [2]
CC(=O)N[C@H]1[C@H]([C@H](O)[C@H](O)CO)O[C@@](OC[C@H]2O[C@@H](O[C@H]3[C@H](O)[C@@H](O)C(O)O[C@@H]3CO)[C@H](O)[C@@H](O)[C@H]2O)(C(=O)O)C[C@@H]1O (stereo partly shown) [6′SL, 6′-sialyllactose (Neu5Acα2,6Galβ1, 4Glcβ, or 6′SL)]	micromolar or sub-micromolar	micromolar or sub-micromolar	
CC(=O)N[C@H]1[C@H]([C@H](O)[C@H](O)CO)O[C@@](O[C@H]2[C@@H](O)[C@@H](CO)O[C@@H](O[C@H]3[C@H](O)[C@@H](O)C(O)O[C@@H]3CO)[C@@H]2O)(C(=O)O)C[C@@H]1O (stereo partly drawn) [3′SL, α2,3-sialyllactose]	micromolar or sub-micromolar	micromolar or sub-micromolar	sub-micromolar
CC(=O)N[C@H]1[C@H]([C@H](O)[C@H](O)CO)O[C@@](O[C@H](CO)[C@@H](O)[C@@H]2O[C@@](O[C@H]3[C@@H](O)[C@@H](CO)O[C@@H](O[C@H]4[C@H](O)[C@@H](O)C(O)O[C@@H]4CO)[C@@H]3O)(C(=O)O)C[C@H](O)[C@H]2NC(C)=O)(C(=O)O)C[C@@H]1O (stereo partly shown) [GD3, Neu5Acα2,8Neu5Acα2,3Galβ1, 4Glcβ]	micromolar or sub-micromolar	micromolar or sub-micromolar	
